Patent publication US20140370048A1, “COMPOSITION FOR TREATMENT OR PREVENTION OF HYPERLIPIDEMIA, CONTAINING ALCOHOL EXTRACTS OF OLIGOPORUS TEPHROLEUCUS” (POSTECH ACADEMY-INDUSTRY FOUNDATION, priority 2011, published 2014)

System: cholesterol absorption in the digestive tract
Test: Amount of cholesterol absorption into blood from the digestive tract after oral 3H-cholesterol oleate in mice
Format: in vivo
Details: 8-week old male Balb/c mouse, plasma six hours after administration, extract 20 ml of 10 mg/mL concentrated into 0.1 mL, Orlistat 400 μg (20 mg/kg), FIG. 2
Protocol: Cholesterol oleate (Amersham, 100 μCi/mL) radiolabeled with ^3H was mixed with 1% (w/v) sodium carboxylmethyl cellulose (CMC-Na), 1% (v/v) Tween 80, and a non-labeled cholesterol oleate, and then 0.1 mL of the mixture was forcibly administered into each mouse through an oral zonde so that 1 μCi could be delivered to each mouse. Here, the mouse in the control group (an 8-week old male Balb/c with body weight of 25 g) was treated with 400 μg of Orlistat (20 mg/kg), which has an inhibitory effect against cholesterol absorption, and the mouse in the experimental group (an 8-week old male Balb/c with body weight of 25 g) was treated with 20 ml of the ethanol extract (10 mg/mL) of Oligoporus tephroleucus prepared in the Example after concentrating it into 0.1 mL. Six hours after the administration, blood samples were collected from the mice, and plasma was obtained by centrifuging the blood at […] at the rate of 14000 rpm, and the radioactive dose was measured by a liquid scintillator (Beta counter, Beckman LS1801). The Control group was not treated with anything that may inhibit the absorption of cholesterol. The amount of cholesterol absorption was determined as a relative value by dividing the radioactive dose of each group into the radioactive dose of the control group, in which the radioactive dose of the control group was set at ‘1’.

## CCCCCCCCCCC[C@@H](C[C@@H]1OC(=O)[C@H]1CCCCCC)OC(=O)[C@H](CC(C)C)NC=O [Orlistat]
  inhibitory effect upon the cholesterol absorption (plasma radioactive dose relative to untreated control set at 1): significant inhibitory effect
